What was measured:
HhalCSP15 = assay: Fluorescence competitive binding assay with 1-NPN as fluorescent probe; design: species or system Halyomorpha halys; conditions: for Ki: Ki=IC50/(1+[1-NPN]/K1-NPN), HhalCSP15 and 1-NPN 2 μM, pH 7.4, triplicate, read-out: Ki, dissociation constant; for binding ability with HhalCSP15 (in words): fluorescence binding experiments
Experimental: The binding abilities of HhalCSP15 to 43 volatiles were measured on an F-380 fluorescence spectrophotometer (Tianjin, China) using 10-nm slits and a 1-cm light path. As the fluorescent probe, N-phenyl-1-naphthylamine (1-NPN) was excited at the wavelength of 337nm, and emission spectra were recorded between 390 and 530nm. To measure the affinity of 1-NPN to the HhalCSP15 protein, a 2-μM solution of purified protein in 50-mM Tris-HCl at pH 7.4 was titrated with aliquots of 1-mM 1-NPN dissolved in methanol to final concentrations ranging from 2 to 16μM.
[…] Dissociation constants of the competitors were calculated by the equation Ki=IC50/(1+[1-NPN]/K1-NPN), where IC50 is the concentration of ligands halving the initial fluorescence value of 1-NPN, [1-NPN] is the free concentration of 1-NPN, and K1-NPN is the dissociation constant of the HhalCSP15/1-NPN complex.

[1] = system: Halyomorpha halys antennae; assay: Electroantennography (EAG) recordings; conditions: 10 μl of 100 μg/μl in paraffin oil; for EAG response of antennae (in words; comparison among nymphs, females, males): third instar nymphs and 1- to 3-day old male and female adults, solvent-corrected
Experimental: The antennal responses of H. halys to the three ligands of […]15 were evaluated using conventional EAG methods as described in previous study ([Wang et al., 2020]). Briefly, antennae of the third instar nymphs and 1- to 3-day old male and female adults were dissected, and a few terminal segments at the distal end were excised. The treated antennae were attached to electrode holders with electrode gel. Ten microliters of tested chemicals (100μg/μl, diluted in paraffin oil) were applied to filter paper strips (1.0cm×2.0cm) and inserted into a glass Pasteur pipette as a cartridge. The test cartridge was connected to a stimulus controller (CS-55; Syntech, Kirchzarten, Germany) that generated a 0.5s stimulus at 30s intervals, with a constant flow of 10ml/s. The signals generated by the antennae were recorded using EAG Pro (Syntech). A blank stimulus (solvent control) was presented before testing the compound. For each compound, EAG responses were recorded from eight antennae of different insects. The EAG responses elicited by the test odor stimuli were corrected by subtracting EAG response from the solvent control. The corrected EAG data were statistically analyzed using ANOVA followed by Tukey's HSD test.

| SMILES | Ki (HhalCSP15) [µM] | binding ability with HhalCSP15 (in words) (HhalCSP15) | EAG response of antennae (in words; comparison among nymphs, females, males) [1] | further results |
| --- | --- | --- | --- | --- |
| c1ccc(Nc2cccc3ccccc23)cc1 [1-NPN, N-phenyl-1-naphthylamine, reference compound] | – | – | – | Kd (HhalCSP15; 2 μM protein in 50 mM Tris-HCl pH 7.4 titrated with 1-NPN 2 to 16 μM, read-out: dissociation constant of the HhalCSP15/1-NPN complex): 9.36 µM |
| CCC\C=C/C=C/C=C/C(=O)OC [Methyl (2E,4E,6Z)-decatrienoate] | 9.6 ± 0.4 | identified as a binding ligand | significantly greater EAG responses in adults compared with nymphs | – |
| CCCCCCCCCCCCC [Tridecane] | – | could not bind | – | – |
| CC/C=C\CCOC(=O)c1ccccc1 [cis-3-Hexen-1-yl benzoate] | 10.5 ± 0.8 | strong binding abilities | – | EAG response compared among ligands (in words) ([1]; nymphs and adults): highest EAG response among all ligands in both nymphs and adults; EAG response of antennae (in words; comparison among nymphs, females, males) ([1]; listed as Cis-3-hexen-1-yl benzoate): significantly greater responses in females compared with males and nymphs; EAG response of antennae (in words; comparison among nymphs, females, males) ([1]; listed as cis-3-hexen-1-yl benzoate): elicit an EAG response in both nymph and adult H. halys antennae |
| CCCCCCC/C=C/C=O [trans-2-Decenal] | – | could not bind | – | – |
| CC(=O)/C=C/C1=C(C)CCCC1(C)C [β-Ionone] | 11.9 ± 0.6 | strong binding abilities | elicit an EAG response in both nymph and adult H. halys antennae | EAG response of antennae (in words; comparison among nymphs, females, males) ([1]; listed as β-ionone): significantly greater responses in females compared with males and nymphs |

From paper PMC8450399, “Expression Profiles and Functional Characterization of Chemosensory Protein 15 (HhalCSP15) in the Brown Marmorated Stink Bug Halyomorpha halys” (Frontiers in Physiology, 2021)
